The subject of this assay is MV-4-11 cells. Briefly: Gene expression microarray analysis (Affymetrix PrimeView) and GSEA. Format: cell-based, human. Further details: RFU PODN (11730768_x_at) / Fold change /veh PODN (11730768_x_at) / RFU LINC00158 (11744669_a_at) / Fold change /veh LINC00158 (11744669_a_at) / RFU DUSP10 (11751237_a_at) / Fold change /veh DUSP10 (11751237_a_at) / RFU ID3 (11757404_x_at) / Fold change /veh ID3 (11757404_x_at) / RFU PLEKHG5 (11737974_s_at) / Fold change /veh PLEKHG5 (11737974_s_at) / RFU LRRC4B (11730491_at) / Fold change /veh LRRC4B (11730491_at) / RFU GIMAP4 (11747438_a_at) / Fold change /veh GIMAP4 (11747438_a_at) / RFU KRT8 (11758183_x_at) / Fold change /veh KRT8 (11758183_x_at) / RFU CNN1 (11734310_a_at) / Fold change /veh CNN1 (11734310_a_at) / RFU VPS37D (11726825_at) / Fold change /veh VPS37D (11726825_at) / RFU C10orf10 (11716522_x_at) / Fold change /veh C10orf10 (11716522_x_at) / RFU KIR2DL2 /// KIR2DL4 /// KIR2DL5A /// KIR2DL5B /// KIR2DS1 /// KIR2DS2 /// KIR2DS3 /// KIR2DS4 /// KIR3DL3 /// KIR3DL3 /// KIR3DS1 (11738374_at) / Fold change /veh KIR2DL2 /// KIR2DL4 /// KIR2DL5A /// KIR2DL5B /// KIR2DS1 /// KIR2DS2 /// KIR2DS3 /// KIR2DS4 /// KIR3DL3 /// KIR3DL3 /// KIR3DS1 (11738374_at) / RFU C1QL1 (11718748_at) / Fold change /veh C1QL1 (11718748_at) / RFU TMPRSS4 (11747572_a_at) / Fold change /veh TMPRSS4 (11747572_a_at) / RFU HAMP (11756126_x_at) / Fold change /veh HAMP (11756126_x_at) / RFU RNFT2 (11725882_a_at) / Fold change /veh RNFT2 (11725882_a_at) / RFU NR4A2 (11747474_a_at) / Fold change /veh NR4A2 (11747474_a_at) / RFU ABCC12 (11746883_a_at) / Fold change /veh ABCC12 (11746883_a_at) / RFU TMEM136 (11760407_x_at) / Fold change /veh TMEM136 (11760407_x_at) / RFU CLDN22 /// WWC2 (11732394_at) / Fold change /veh CLDN22 /// WWC2 (11732394_at) / RFU HLA-DPB1 (11760878_x_at) / Fold change /veh HLA-DPB1 (11760878_x_at) / RFU SPINT1 (11716480_a_at) / Fold change /veh SPINT1 (11716480_a_at) / RFU GAP43 (11754022_s_at) / Fold change /veh GAP43 (11754022_s_at) / RFU A4GNT (11735810_at) / Fold change /veh A4GNT (11735810_at) / RFU PRB3 (11715151_x_at) / Fold change /veh PRB3 (11715151_x_at) / RFU TUBB4B (11761932_at) / Fold change /veh TUBB4B (11761932_at) / RFU CAPN14 (11732068_a_at) / Fold change /veh CAPN14 (11732068_a_at) / RFU TMCC2 (11721928_a_at) / Fold change /veh TMCC2 (11721928_a_at) / RFU IRGQ (11745062_a_at) / Fold change /veh IRGQ (11745062_a_at) / RFU FAM174B (11720279_a_at) / Fold change /veh FAM174B (11720279_a_at) / RFU TMPRSS4 (11748680_a_at) / Fold change /veh TMPRSS4 (11748680_a_at) / RFU FAM212B (11763350_a_at) / Fold change /veh FAM212B (11763350_a_at) / RFU PLEKHG5 (11743358_a_at) / Fold change /veh PLEKHG5 (11743358_a_at) / RFU ZSCAN30 (11745921_a_at) / Fold change /veh ZSCAN30 (11745921_a_at) / RFU CMKLR1 (11741424_a_at) / Fold change /veh CMKLR1 (11741424_a_at) / RFU LOC101060620 /// MAPK8IP1 (11723275_at) / Fold change /veh LOC101060620 /// MAPK8IP1 (11723275_at) / RFU SPTSSB (11747773_x_at) / Fold change /veh SPTSSB (11747773_x_at) / RFU PRSS12 (11739890_at) / Fold change /veh PRSS12 (11739890_at) / RFU BIN1 (11741810_x_at) / Fold change /veh BIN1 (11741810_x_at) / RFU WNT11 (11732464_a_at) / Fold change /veh WNT11 (11732464_a_at) / RFU C10orf10 (11716521_a_at) / Fold change /veh C10orf10 (11716521_a_at) / RFU C5orf56 (11738089_at) / Fold change /veh C5orf56 (11738089_at) / RFU CYB561 (11721691_x_at) / Fold change /veh CYB561 (11721691_x_at) / RFU ANKRD19P (11752326_a_at) / Fold change /veh ANKRD19P (11752326_a_at) / RFU OR2T12 /// OR2T33 /// OR2T8 (11738714_s_at) / Fold change /veh OR2T12 /// OR2T33 /// OR2T8 (11738714_s_at) / RFU VCAN (11748164_a_at) / Fold change /veh VCAN (11748164_a_at) / RFU JSRP1 (11732532_at) / Fold change /veh JSRP1 (11732532_at) / RFU KRTAP10-11 (11738290_x_at) / Fold change /veh KRTAP10-11 (11738290_x_at) / RFU MYO3A (11730013_a_at) / Fold change /veh MYO3A (11730013_a_at) / RFU EBF3 (11725865_a_at) / Fold change /veh EBF3 (11725865_a_at) / RFU CAMK2N1 (11719241_x_at) / Fold change /veh CAMK2N1 (11719241_x_at) / RFU C5orf56 (11738088_a_at) / Fold change /veh C5orf56 (11738088_a_at) / RFU OLFML3 (11715873_a_at) / Fold change /veh OLFML3 (11715873_a_at) / RFU LOC100653217 /// NTM (11731650_a_at) / Fold change /veh LOC100653217 /// NTM (11731650_a_at) / RFU MAPK11 (11762145_a_at) / Fold change /veh MAPK11 (11762145_a_at) / RFU FIZ1 (11724087_x_at) / Fold change /veh FIZ1 (11724087_x_at) / RFU OASL (11726364_x_at) / Fold change /veh OASL (11726364_x_at) / RFU SOX15 (11748057_x_at) / Fold change /veh SOX15 (11748057_x_at) / RFU CD79A (11719716_a_at) / Fold change /veh CD79A (11719716_a_at) / RFU HIST1H1D (11736915_at) / Fold change /veh HIST1H1D (11736915_at) / RFU CASKIN2 (11723855_a_at) / Fold change /veh CASKIN2 (11723855_a_at) / RFU LOC730098 (11760151_x_at) / Fold change /veh LOC730098 (11760151_x_at) / RFU OR4N2 (11742367_at) / Fold change /veh OR4N2 (11742367_at) / RFU PRRT2 (11749266_a_at) / Fold change /veh PRRT2 (11749266_a_at) / RFU SNX32 (11753110_a_at) / Fold change /veh SNX32 (11753110_a_at) / RFU CDHR5 (11726645_a_at) / Fold change /veh CDHR5 (11726645_a_at) / RFU RCAN1 (11760418_a_at) / Fold change /veh RCAN1 (11760418_a_at) / RFU FAM167A (11723789_a_at) / Fold change /veh FAM167A (11723789_a_at) / RFU FAM26E (11764081_at) / Fold change /veh FAM26E (11764081_at) / RFU ISYNA1 (11749810_s_at) / Fold change /veh ISYNA1 (11749810_s_at) / RFU ACY1 (11761880_at) / Fold change /veh ACY1 (11761880_at) / RFU 11764098_at / Fold change /veh 11764098_at / RFU SAMD14 (11745864_x_at) / Fold change /veh SAMD14 (11745864_x_at) / RFU NPB (11741838_a_at) / Fold change /veh NPB (11741838_a_at) / RFU TMPRSS6 (11731388_a_at) / Fold change /veh TMPRSS6 (11731388_a_at) / RFU KRTAP10-2 (11738614_at) / Fold change /veh KRTAP10-2 (11738614_at) / RFU ARHGAP8 /// PRR5-ARHGAP8 (11727945_x_at) / Fold change /veh ARHGAP8 /// PRR5-ARHGAP8 (11727945_x_at) / RFU KRTAP5-7 /// NADSYN1 (11734609_at) / Fold change /veh KRTAP5-7 /// NADSYN1 (11734609_at) / RFU RASL12 (11751679_a_at) / Fold change /veh RASL12 (11751679_a_at) / RFU CDKN2B (11736163_a_at) / Fold change /veh CDKN2B (11736163_a_at) / RFU PRF1 (11729649_at) / Fold change /veh PRF1 (11729649_at) / RFU, ZNF638 /// ZNF638-IT1 / Fold change vs veh, ZNF638 /// ZNF638-IT1 / RFU, PANK3 / Fold change vs veh, PANK3 / RFU, SH3YL1 / Fold change vs veh, SH3YL1 / RFU, ZEB2 / Fold change vs veh, ZEB2 / RFU, NRIP1 / Fold change vs veh, NRIP1 / RFU, PTTG1IP / Fold change vs veh, PTTG1IP / RFU, CAPN2 / Fold change vs veh, CAPN2 / RFU, MED14 / Fold change vs veh, MED14 / RFU, SNORA58 / Fold change vs veh, SNORA58 / RFU, C1orf63 / Fold change vs veh, C1orf63 / RFU, LRRFIP1 / Fold change vs veh, LRRFIP1 / RFU, NDUFAF7 / Fold change vs veh, NDUFAF7 / RFU, SLC12A2 / Fold change vs veh, SLC12A2 / RFU, IBTK / Fold change vs veh, IBTK / RFU, ESF1 / Fold change vs veh, ESF1 / Fold change vs veh, TMEM50B / RFU, TAOK1 / Fold change vs veh, TAOK1 / RFU, ACBD3 / Fold change vs veh, ACBD3 / RFU, TMA16 / Fold change vs veh, TMA16 / RFU, RWDD3 / Fold change vs veh, RWDD3 / RFU, BCAT1 / Fold change vs veh, BCAT1 / RFU, EDEM3 / Fold change vs veh, EDEM3 / RFU, TMEM33 / Fold change vs veh, TMEM33 / RFU, WDR75 / Fold change vs veh, WDR75 / RFU, AHCTF1 / Fold change vs veh, AHCTF1 / RFU, TFRC / Fold change vs veh, TFRC / RFU, ZDHHC17 / Fold change vs veh, ZDHHC17 / RFU, NOM1 / Fold change vs veh, NOM1 / RFU, ARL8B / Fold change vs veh, ARL8B / RFU, ZBTB11 / Fold change vs veh, ZBTB11 / RFU, TAMM41 / Fold change vs veh, TAMM41 / RFU, KIAA1704 /// LOC100996395 / Fold change vs veh, KIAA1704 /// LOC100996395 / RFU, ING1 / Fold change vs veh, ING1 / RFU, TRMT61B / Fold change vs veh, TRMT61B / RFU, FUBP3 / Fold change vs veh, FUBP3 / RFU, TP53 / Fold change vs veh, TP53 / RFU, TNKS2 / Fold change vs veh, TNKS2 / RFU, ZFP14 / Fold change vs veh, ZFP14 / RFU, ACTR2 / Fold change vs veh, ACTR2 / RFU, PPP3R1 / Fold change vs veh, PPP3R1 / RFU, PIK3R1 / Fold change vs veh, PIK3R1 / RFU, HNRNPA1 / Fold change vs veh, HNRNPA1 / RFU, RNF170 / Fold change vs veh, RNF170 / RFU, ZNF28 / Fold change vs veh, ZNF28 / RFU, RNGTT / Fold change vs veh, RNGTT / RFU, OGT / Fold change vs veh, OGT / RFU, BRD1 / Fold change vs veh, BRD1 / RFU, MARS / Fold change vs veh, MARS / RFU, ZNF655 / Fold change vs veh, ZNF655 / RFU, FAHD1 / Fold change vs veh, FAHD1 / RFU, BDP1 / Fold change vs veh, BDP1 / RFU, LRRCC1 / Fold change vs veh, LRRCC1 / RFU, ARID1A / Fold change vs veh, ARID1A / RFU, ZNF146 / Fold change vs veh, ZNF146 / RFU, ZNF330 / Fold change vs veh, ZNF330 / RFU, GPN3 / Fold change vs veh, GPN3 / RFU, C9orf123 / Fold change vs veh, C9orf123 / RFU, N4BP2L2 / Fold change vs veh, N4BP2L2 / RFU, ARFIP1 / Fold change vs veh, ARFIP1 / RFU, FAM179B / Fold change vs veh, FAM179B / RFU, BCL10 / Fold change vs veh, BCL10 / RFU, UHRF1BP1L / Fold change vs veh, UHRF1BP1L / RFU, BET1 / Fold change vs veh, BET1 / RFU, CNOT2 / Fold change vs veh, CNOT2 / RFU, ZNF268 / Fold change vs veh, ZNF268 / Fold change vs veh, ZNF507 / RFU, DGCR2 / Fold change vs veh, DGCR2 / RFU, WDSUB1 / Fold change vs veh, WDSUB1 / Fold change vs veh, HSP90B1 /// MIR3652 / RFU, ADSS / Fold change vs veh, ADSS / RFU, GK / Fold change vs veh, GK / RFU, ZNF148 / Fold change vs veh, ZNF148 / RFU, TAF9 / Fold change vs veh, TAF9 / RFU, SLC1A5 / Fold change vs veh, SLC1A5 / RFU, SLMO2 / Fold change vs veh, SLMO2 / RFU, ABCC4 / Fold change vs veh, ABCC4 / RFU, LOC101060439 /// RAP1B / Fold change vs veh, LOC101060439 /// RAP1B / RFU, RFX7 / Fold change vs veh, RFX7 / RFU, GTPBP10 / Fold change vs veh, GTPBP10 / RFU, CNEP1R1 / Fold change vs veh, CNEP1R1 / RFU, BIVM-ERCC5 /// ERCC5 / Fold change vs veh, BIVM-ERCC5 /// ERCC5 / RFU, ILF3 / Fold change vs veh, ILF3 / RFU 11762660_at / Fold change /veh 11762660_at / RFU VCAN (11757783_s_at) / Fold change /veh VCAN (11757783_s_at) / RFU DDX43 (11728927_at) / Fold change /veh DDX43 (11728927_at) / RFU KRT8 (11758188_x_at) / Fold change /veh KRT8 (11758188_x_at) / RFU NKD1 (11759106_at) / Fold change /veh NKD1 (11759106_at) / RFU SRD5A1 (11742802_a_at) / Fold change /veh SRD5A1 (11742802_a_at) / RFU TPSAB1 /// TPSB2 (11721975_s_at) / Fold change /veh TPSAB1 /// TPSB2 (11721975_s_at) / RFU GSTM3 (11746129_a_at) / Fold change /veh GSTM3 (11746129_a_at) / RFU IL23R (11737362_x_at) / Fold change /veh IL23R (11737362_x_at) / RFU TMEM51 (11727254_a_at) / Fold change /veh TMEM51 (11727254_a_at) / RFU PIWIL2 (11732686_x_at) / Fold change /veh PIWIL2 (11732686_x_at) / RFU ORM1 (11744905_x_at) / Fold change /veh ORM1 (11744905_x_at) / RFU CCDC152 (11743942_at) / Fold change /veh CCDC152 (11743942_at) / RFU ECM1 (11717891_a_at) / Fold change /veh ECM1 (11717891_a_at) / RFU IL23R (11748794_a_at) / Fold change /veh IL23R (11748794_a_at) / RFU TNFAIP8L3 (11732012_x_at) / Fold change /veh TNFAIP8L3 (11732012_x_at) / RFU MBOAT4 (11741988_at) / Fold change /veh MBOAT4 (11741988_at) / RFU 11764193_at / Fold change /veh 11764193_at / RFU TMEM53 (11763286_at) / Fold change /veh TMEM53 (11763286_at) / RFU MAGEB2 (11727129_at) / Fold change /veh MAGEB2 (11727129_at) / RFU TMEM200A (11744735_a_at) / Fold change /veh TMEM200A (11744735_a_at) / RFU CCDC152 (11751479_a_at) / Fold change /veh CCDC152 (11751479_a_at) / RFU FAM211A (11726209_a_at) / Fold change /veh FAM211A (11726209_a_at) / RFU RGS16 (11746705_a_at) / Fold change /veh RGS16 (11746705_a_at) / RFU VCAN (11755009_s_at) / Fold change /veh VCAN (11755009_s_at) / RFU RHOB (11743442_s_at) / Fold change /veh RHOB (11743442_s_at) / RFU RGS16 (11720943_a_at) / Fold change /veh RGS16 (11720943_a_at) / RFU RGS16 (11720944_at) / Fold change /veh RGS16 (11720944_at) / RFU, VPS4B / Fold change vs veh, VPS4B / RFU, CREB1 / Fold change vs veh, CREB1 / RFU, DNAJC13 / Fold change vs veh, DNAJC13 / RFU, GNAQ / Fold change vs veh, GNAQ / RFU, CDK5R1 / Fold change vs veh, CDK5R1 / RFU, ZRANB3 / Fold change vs veh, ZRANB3 / RFU, CUL4A / Fold change vs veh, CUL4A / RFU, CCNY / Fold change vs veh, CCNY / RFU, UFL1 / Fold change vs veh, UFL1 / RFU, COG3 / Fold change vs veh, COG3 / RFU, DIAPH2 / Fold change vs veh, DIAPH2 / RFU, SKA2 / Fold change vs veh, SKA2 / RFU, AFF3 / Fold change vs veh, AFF3 / RFU, LMF1 / Fold change vs veh, LMF1 / RFU, IPO11 / Fold change vs veh, IPO11 / RFU, DFFB / Fold change vs veh, DFFB / RFU, FOXP1 / Fold change vs veh, FOXP1 / RFU, CARD8 / Fold change vs veh, CARD8 / RFU, STRN3 / Fold change vs veh, STRN3 / RFU, ADK / Fold change vs veh, ADK / RFU, RASSF2 / Fold change vs veh, RASSF2 / RFU, WIPF1 / Fold change vs veh, WIPF1 / RFU, LARP1B / Fold change vs veh, LARP1B / RFU, RASA1 / Fold change vs veh, RASA1 / RFU, RB1 / Fold change vs veh, RB1 / RFU, PPFIA1 / Fold change vs veh, PPFIA1 / RFU, MAT2A / Fold change vs veh, MAT2A / RFU, CCT5 / Fold change vs veh, CCT5 / RFU, WDR92 / Fold change vs veh, WDR92 / RFU, CUX1 / Fold change vs veh, CUX1 / RFU, TTC7A / Fold change vs veh, TTC7A / RFU, TMEM135 / Fold change vs veh, TMEM135 / RFU, DEPTOR / Fold change vs veh, DEPTOR / RFU, CPM / Fold change vs veh, CPM / RFU, DNAJB6 / Fold change vs veh, DNAJB6 / RFU, CACNA2D3 / Fold change vs veh, CACNA2D3 / RFU, DTX4 / Fold change vs veh, DTX4 / RFU, TFCP2 / Fold change vs veh, TFCP2 / RFU, GMCL1 /// GMCL1P1 / Fold change vs veh, GMCL1 /// GMCL1P1 / RFU, AEBP2 / Fold change vs veh, AEBP2 / RFU, SNHG1 /// SNORD22 /// SNORD25 /// SNORD26 /// SNORD27 /// SNORD28 /// SNORD29 /// SNORD31 / Fold change vs veh, SNHG1 /// SNORD22 /// SNORD25 /// SNORD26 /// SNORD27 /// SNORD28 /// SNORD29 /// SNORD31 / Fold change (Aza/veh), C12orf56 (ProbeSet 11735607_a_at) / Fold change (ACY-1035/veh), C12orf56 (ProbeSet 11735607_a_at) / Fold change (Aza/veh), FGFR1OP (ProbeSet 11751329_s_at) / Fold change (ACY-1035/veh), FGFR1OP (ProbeSet 11751329_s_at) / Fold change (Aza/veh), VPS36 (ProbeSet 11739960_a_at) / Fold change (ACY-1035/veh), VPS36 (ProbeSet 11739960_a_at) / RFU SYPL1 (11715823_x_at) / Fold change /veh SYPL1 (11715823_x_at) / RFU IGFBP7 (11715501_s_at) / Fold change /veh IGFBP7 (11715501_s_at) / RFU REEP3 (11722064_at) / Fold change /veh REEP3 (11722064_at) / RFU IGLL1 (11728026_x_at) / Fold change /veh IGLL1 (11728026_x_at): dose or concentration left out as unconfirmed. Particulars: MV-4-11 cells, 48 hours.

Regarding `Nc1ccc(-c2cccs2)cc1NC(=O)c1ccc2c(c1)cc(C1CC1)n2CCN1CCOCC1` [ACY-1035], the “RFU CDKN2B (11736163_a_at)” value turned out to be 9.39 RFU.

These data come from paper PMC5218480 (PLoS ONE, 2017).
